Laboratory results: BindingDB's records for doi:10.1097/00004424-198809001-00017 (Unit&Eacute, 1988)

Legend:
[1] = target: Histamine H3 receptor (Cavia porcellus, UniProt Q9JI35)
[2] = target: Hrh3 protein (Rattus norvegicus, UniProt Q5PPG3)
Chain of Hrh3 protein (Q5PPG3 whole entry): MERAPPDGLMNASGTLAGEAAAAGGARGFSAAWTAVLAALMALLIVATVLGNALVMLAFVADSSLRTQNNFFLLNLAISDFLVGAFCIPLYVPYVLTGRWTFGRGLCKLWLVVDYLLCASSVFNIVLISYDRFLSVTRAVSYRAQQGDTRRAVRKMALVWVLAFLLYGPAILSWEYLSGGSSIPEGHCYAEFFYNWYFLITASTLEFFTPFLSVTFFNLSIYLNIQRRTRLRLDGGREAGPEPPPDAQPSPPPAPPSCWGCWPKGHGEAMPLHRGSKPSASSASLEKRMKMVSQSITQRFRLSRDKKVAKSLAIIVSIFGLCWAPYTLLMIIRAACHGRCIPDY

Chain of Histamine H3 receptor (Q9JI35 whole entry): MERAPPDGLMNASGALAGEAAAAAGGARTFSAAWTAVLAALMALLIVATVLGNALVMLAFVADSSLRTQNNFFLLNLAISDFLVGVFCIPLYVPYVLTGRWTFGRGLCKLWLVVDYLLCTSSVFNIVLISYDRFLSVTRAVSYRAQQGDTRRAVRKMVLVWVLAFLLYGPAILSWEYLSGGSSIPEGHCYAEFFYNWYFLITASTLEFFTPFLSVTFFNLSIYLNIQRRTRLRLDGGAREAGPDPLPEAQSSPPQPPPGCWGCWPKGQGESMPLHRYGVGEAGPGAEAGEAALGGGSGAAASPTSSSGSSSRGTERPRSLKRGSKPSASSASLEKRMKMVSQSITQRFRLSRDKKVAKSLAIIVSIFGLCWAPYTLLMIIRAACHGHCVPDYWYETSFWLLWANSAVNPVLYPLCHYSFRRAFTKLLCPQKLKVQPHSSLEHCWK

| Structure (SMILES) | Ki [1] [nM] | Ki [2] [nM] |
| --- | --- | --- |
| NCCc1c[nH]cn1 [[3H]histamine] | 100 | 100 |
| C[C@H](N)Cc1c[nH]cn1 [CAS_75614-93-6] | 52 | 11 |
| C[C@@H](N)Cc1c[nH]cn1 | 813 |  |
| c1ncc(CCN2CCCC2)[nH]1 [4-[2-(1-Pyrrolidinyl)ethyl]-imidazole] | 6 |  |
| S=C(NC1CCCCC1)N1CCC(c2cnc[nH]2)CC1 | 2 | 2.1 |
